Data published in the supplement of paper PMC10702517.
± gives the standard deviation.

Test: chemical recovery from spiked human plasma; higher = better extraction
Conditions: pooled human plasma
[1] = extraction method: PES+SPE (3 d PDMS equilibration then HLB SPE)
[2] = extraction method: SPE only (HLB 96-well)
[3] = extraction method: SPE only (HLB 96-well), PES comparison experiment
[4] = extraction method: solvent precipitation (ACN + hexane)

Structure (SMILES)	chemical recovery [1]	chemical recovery [2]	chemical recovery [3]	chemical recovery [4]
Cc1cccc(C)c1NC(=O)CS(=O)(=O)O	21.8 ± 8.2%	5.38 ± 9.3%	38.3 ± 6.6%	–
Clc1nc2ccccc2s1	–	–	–	5.44 ± 5.7%
CC(c1ccc(O)cc1)(c1ccc(O)cc1)c1ccc(O)cc1 [1,1,1-Tris(4-hydroxyphenyl)ethane]	59.9 ± 5%	43.2 ± 4.1%	–	43.3 ± 2.1%
COc1ccc(C(c2ccc(OC)cc2)C(Cl)Cl)cc1 [1,1-Dichloro-2,2-bis(4-methoxyphenyl)ethan]	–	9.27 ± 2.4%	–	33.1 ± 7.1%
O=c1[nH]sc2ccccc12 [1,2-Benzisothiazolinone]	7.12 ± 0.96%	10.7 ± 1.4%	1.19 ± 2.4%	5.44 ± 4.6%
Cc1ccccc1NC(=N)Nc1ccccc1C [1,3-Di-o-tolylguanidine]	20.9 ± 2.6%	34.2 ± 2.8%	–	64.5 ± 1.7%
N=C(Nc1ccccc1)Nc1ccccc1 [1,3-Diphenylguanidine]	22.6 ± 3%	34.5 ± 2.5%	48.7 ± 4.8%	59.5 ± 2.6%
O=C(Nc1ccccc1)Nc1ccccc1 [1,3-Diphenylurea]	65.9 ± 7.5%	46.9 ± 3.4%	–	84.4 ± 7.3%
Cc1cc2cccc(C)c2cc1C [1,6,7-Trimethylnaphthalene]	–	2.3 ± 4%	–	–
Nc1ccc2nc3c(N)cccc3nc2c1 [1,7-Diaminophenazine]	15 ± 1.5%	52.7 ± 6.3%	–	–
Cn1cnc2c1c(=O)n(CCCC(=O)O)c(=O)n2C [1-(3-carboxypropyl)-3,7-dimethylxanthine]	72.3 ± 13%	54.3 ± 10%	–	59.8 ± 6.9%
O=C(Nc1ccccc1)NC1CCCCC1 [1-Cyclohexyl-3-phenylurea]	70.3 ± 10%	57.4 ± 16%	–	79.9 ± 4%
CCCCCCCCCCS(=O)(=O)O [1-Decanesulfonic-acid]	42 ± 5.2%	31.5 ± 2.9%	–	61.5 ± 1.9%
CCCCCCCCCCCCS(=O)(=O)O [1-Dodecanesulfonic-acid]	–	25.6 ± 3%	–	52.1 ± 2.3%
CCn1cc[n+](C)c1 [1-Ethyl-3-methyl-imidazolium]	–	0.856 ± 0.42%	–	–
CCCCCCS(=O)(=O)O [1-Hexanesulfonic-acid]	31.6 ± 3.8%	30.6 ± 4.2%	–	74.2 ± 8.3%
Cc1cccc2cc3ccccc3cc12 [1-Methylanthracene]	–	4.65 ± 1.1%	–	–
Cc1cccc2ccccc12 [1-Methylnaphthalene]	–	2.62 ± 2%	–	–
Cc1ccc2ccc3cccc4ccc1c2c34 [1-Methylpyrene]	–	3.46 ± 0.94%	–	34 ± 4%
O=S(=O)(O)c1cccc2c(O)cccc12 [1-Naphthol-5-sulfonic acid]	–	–	35.9 ± 5.8%	–
O=C(c1ccc(O)cc1O)c1ccc(O)cc1O [2,2',4,4'-Tetrahydroxybenzophenone]	50 ± 4.4%	51.4 ± 4.7%	–	–
Oc1ccccc1-c1ccccc1O [2,2'-Dihydroxybiphenyl]	46.1 ± 1.6%	43.3 ± 2.8%	–	–
Cc1cc(Cc2cc(C)cc(C(C)(C)C)c2O)c(O)c(C(C)(C)C)c1 [2,2'-Methylenebis(6-tert-butyl-p-cresol)]	–	7.83 ± 3.9%	–	–
CCc1cc(Cc2cc(CC)cc(C(C)(C)C)c2O)c(O)c(C(C)(C)C)c1 [2,2'-Methylenebis(ethyl-6-tert-butylphenol)]	–	3.63 ± 3.5%	–	64.9 ± 8.7%
Nc1ccc(Cc2ccc(N)c(Cl)c2)cc1Cl [2,2'-dichloro-4,4'-methylenedianiline]	28.7 ± 6.4%	47 ± 13%	–	71.3 ± 5.2%

Structure (SMILES)	chemical recovery [1]	chemical recovery [2]	chemical recovery [3]	chemical recovery [4]
Cc1c(Br)c(Br)c(C)c(Br)c1Br [2,3,5,6-Tetrabromo-p-xylene]	83.9 ± 17%	17 ± 6.2%	–	103 ± 16%
Cc1cc2ccccc2cc1C [2,3-Dimethylnaphthalene]	–	0.0627 ± 0.11%	–	–
C[N+](C)(C)CC1CO1 (configuration not stated) [2,3-Epoxypropyltrimethylammonium]	0.728 ± 0.46%	0.76 ± 0.94%	–	–
Oc1c(Br)cc(Br)cc1Br [2,4,6-Tribromophenol]	46.9 ± 0.63%	35 ± 8.7%	–	55.2 ± 4.1%
O=C(O)CCCOc1ccc(Cl)cc1Cl [2,4-DB]	66.6 ± 7.5%	50.7 ± 2.8%	–	61.5 ± 6%
O=C(O)COc1ccc(Cl)cc1Cl [2,4-Dichlorophenoxyacetic acid]	–	–	56.3 ± 5.5%	73.2 ± 6.1%
Cc1ccc2cc(C)ccc2c1 [2,6-Dimethylnaphthalene]	–	0.083 ± 0.072%	–	–
Cc1cccc(C)c1N [2,6-Xylidine]	–	7.08 ± 5%	–	48 ± 3.5%
Cn1c(N)nc2ncc(-c3ccccc3)cc21 [2-Amino-1-methyl-6-phenylimidazo[4,5-b]pyridine (PhIP)]	38.9 ± 2.9%	39.3 ± 2.8%	47 ± 5.8%	72.4 ± 2.8%
Cn1c(N)nc2ncc(-c3ccccc3)cc21 [2-Amino-1-methyl-6-phenylimidazo[4,5-b]pyridine-(PhIP)]	49 ± 2.1%	45.2 ± 2.2%	–	70.9 ± 3.6%
Cc1cnc2ccc3c(nc(N)n3C)c2n1 [2-Amino-3,8-dimethylimidazo-[4,5-f]quinoxaline (MeIQx)]	48.7 ± 6%	49.1 ± 2.6%	–	72.4 ± 3.3%
Cn1c(N)nc2c3cccnc3ccc21 [2-Amino-3-methyl-imidazo[4,5-f]quinoline (IQ)]	–	11.1 ± 1.8%	–	–
Cn1c(N)nc2c3cccnc3ccc21 [2-Amino-3-methyl-imidazo[4,5-f]quinoline-(IQ)]	27 ± 5.9%	13.8 ± 2.6%	–	73.4 ± 2.7%
Nc1ccc2c(n1)[nH]c1ccccc12 [2-Amino-9H-pyrido[2,3-b]indole-(AalphaC)]	17.4 ± 2.8%	32.5 ± 2.4%	–	62.4 ± 5.3%
CC(Cl)CN(C)C (configuration not stated) [2-Chloropropyldimethylamine]	0.712 ± 0.094%	1.1 ± 0.73%	–	–
CCCCC(CC)COP(=O)(Oc1ccccc1)Oc1ccccc1 (configuration not stated) [2-Ethylhexyldiphenylphosphate]	–	38.9 ± 8.9%	–	–
NNc1ccccn1 [2-Hydrazinopyridine]	0.622 ± 0.11%	9.35 ± 5%	–	–
CCNc1nc(NC(C)C)[nH]c(=O)n1 [2-Hydroxyatrazine]	36.1 ± 4.4%	29.1 ± 3.5%	44.3 ± 8.2%	76.5 ± 3.2%
Cc1ccc2cc3ccccc3cc2c1 [2-Methylanthracene]	51.5 ± 4.5%	3.56 ± 0.86%	–	–
Cc1ccc2ccccc2c1 [2-Methylnaphthalene]	–	2.91 ± 1.5%	–	–
Nc1ccccc1[N+](=O)[O-] [2-Nitroaniline]	–	25.1 ± 5.2%	–	–
Cc1cc(-c2ccc(N)c(C)c2)ccc1N [3,3'-Dimethylbenzidine]	–	37.1 ± 6.7%	20.3 ± 2.9%	61.7 ± 6.9%
Oc1cc(Cl)c(Cl)c(Cl)c1 [3,4,5-Trichlorophenol]	58.9 ± 7.8%	45 ± 3.1%	–	70.1 ± 3.9%
Oc1ccc(Cl)cc1O [3,4-Dihydroxy-chlorobenzene]	5.54 ± 1.6%	39.4 ± 4.7%	–	–
Cc1ccc(N)cc1Cl [3-Chloro-4-methylaniline]	56.7 ± 3.6%	45.3 ± 2.8%	–	76.7 ± 4.1%

More lines, now with the values ahead:

chemical recovery [1]	chemical recovery [2]	chemical recovery [3]	chemical recovery [4]	Structure (SMILES)
–	0.62 ± 1.1%	–	–	Cc1ccc(C)c(O)c1C [2,3,6-Trimethylphenol]
53.8 ± 3.7%	42.1 ± 2.9%	–	59.2 ± 3.6%	O=C(c1ccccc1)c1ccc(O)cc1O [2,4-Dihydroxybenzophenone]
–	63.3 ± 4.5%	–	–	NC(=O)c1c(Cl)cccc1Cl [2,6-Dichlorobenzamide]
–	–	16.8 ± 6.9%	–	CC(C)c1ccc2cc(C(C)C)ccc2c1 [2,6-Diisopropylnaphthalene]
–	60.6 ± 17%	–	72.8 ± 11%	O=S(=O)(O)c1ccc2ccc(S(=O)(=O)O)cc2c1 [2,7-Naphthalenedisulfonic acid]
11.8 ± 0.64%	38.5 ± 14%	–	53.2 ± 6.7%	Nc1ccc2nc3ccc(N)cc3nc2c1 [2,8-Diaminophenazine]
7.13 ± 2.3%	6.88 ± 5.6%	–	–	COCCOCCOCCO [2-(2-(2-Methoxyethoxy)ethoxy)ethanol]
59.8 ± 2.4%	0.402 ± 0.15%	–	23.4 ± 1%	c1ccc2cc(-c3cc4ccccc4s3)ccc2c1 [2-(2-Naphthalenyl)benzothiophene]
0.697 ± 0.13%	2.37 ± 1.9%	–	72.2 ± 2.7%	O=S(=O)(O)CCNC1CCCCC1 [2-(Cyclohexylamino)-ethansulfonic-acid]
–	–	1.9 ± 2.2%	–	NCCN1CCNCC1 [2-(Piperazin-1-yl)ethanamine]
–	44.1 ± 2.3%	–	18.4 ± 10%	N#CSCSc1nc2ccccc2s1 [2-(Thiocyanomethylthio)benzothiazole]
–	–	80.9 ± 10%	–	CC(=O)c1ccc2ccccc2c1 [2-Acetonaphthone]
–	2.25 ± 2.4%	–	–	Cc1cc(C)nc(N)n1 [2-Amino-4,6-dimethylpyrimidine]
–	18.8 ± 4.5%	–	68.3 ± 4.5%	Nc1nc2ccccc2[nH]1 [2-Aminobenzimidazole]
52.1 ± 4.4%	40.6 ± 5%	–	–	Oc1ccc2c(c1)[nH]c1ccccc12 [2-Hydroxycarbazole]
45.2 ± 5.9%	34.6 ± 4%	44.3 ± 8.5%	77.2 ± 3.2%	Cc1cc(=O)nc(C(C)C)[nH]1 [2-Isopropyl-6-methyl-pyrimidin-4-ol]
–	–	–	139 ± 8.9%	c1ccc2sc(SN3CCOCC3)nc2c1 [2-Morpholinothiobenzothiazole]
–	–	–	39.1 ± 5.5%	O=C1Cc2ccccc2N1 [2-Oxindole]
–	–	–	56.3 ± 2.7%	N[C@@H](Cc1cc(I)c(Oc2ccc(O)c(I)c2)c(I)c1)C(=O)O [3,3',5-Triiodo-L-thyronine]
–	20.1 ± 4.9%	–	42.1 ± 2.7%	CC(=O)c1cc(C(C)(C)C)c(O)c(C(C)(C)C)c1 [3,5-Di-tert-butyl-4'-hydroxyacetophenone]
36.5 ± 13%	2.62 ± 0.48%	–	71.5 ± 5%	Cc1ccc2ccc3ccc(C)cc3c2c1 [3,6-dimethylphenanthrene]
28.9 ± 9.2%	35.4 ± 2.2%	–	61.2 ± 1.1%	CN(C)C(=O)NC1CCCCC1 [3-Cyclohexyl-1,1-dimethylurea]
